Where two headings read alike, the source gives them in different places.
Target: T1, pancreatic lipase derived from swine (Sus scrofa, UniProt P00591)
T1 construct: purchased Sigma Ltd
T1 sequence (P00591 1-450): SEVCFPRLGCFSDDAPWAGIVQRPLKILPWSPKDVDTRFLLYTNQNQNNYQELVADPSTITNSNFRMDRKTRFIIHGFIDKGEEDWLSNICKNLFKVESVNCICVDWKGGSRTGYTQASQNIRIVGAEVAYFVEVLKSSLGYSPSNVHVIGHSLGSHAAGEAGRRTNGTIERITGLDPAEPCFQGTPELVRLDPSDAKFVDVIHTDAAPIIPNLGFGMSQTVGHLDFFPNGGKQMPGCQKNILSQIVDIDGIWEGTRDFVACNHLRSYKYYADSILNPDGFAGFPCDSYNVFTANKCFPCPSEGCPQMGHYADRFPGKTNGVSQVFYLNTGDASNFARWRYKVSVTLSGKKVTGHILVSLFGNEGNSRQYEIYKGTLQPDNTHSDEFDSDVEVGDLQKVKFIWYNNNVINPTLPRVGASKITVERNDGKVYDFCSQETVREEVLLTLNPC
Assay: lipase inhibitory test (4-MUO substrate, fluorescence)
Format: biochemical
Conditions: read-out: lipase inhibitory activity (%)

Q: `O=C(O)c1cc(O)c(O)c(O)c1` [gallic acid] was tested. Which inhibition at 250 µM (sample concentration 250 μM, 4-MUO substrate, 37° C., 30 minutes) did it give?
A: The inhibition at 250 µM was 50%.

Q: Which inhibition at 250 µM does the source give for `O=c1c(O)c(-c2ccc(O)c(O)c2)oc2cc(O)cc(O)c12` [quercetin] here?
A: Its inhibition at 250 µM is 64.3%.

Reference: patent US20110237533A1, “NOVEL POLYPHENOL COMPOUND” (priority 2008, published 2011)
